# Reference: patent US8362011B2, “Tricyclic triazolic compounds” (Laboratories del Dr. Esteve, S.A., priority 2007, dated 2013)
# “And” between values parts separate entries of the source, which are not always exact repeats. Equal values may be shown once.
# Tests used:
# [1] = target: T1, σ1-receptor (Cavia porcellus, UniProt Q60492); assay: σ1-receptor binding assay, [3H]-(+)-pentazocine, guinea pig brain membranes; settings: [3H]-(+)-pentazocine 5.0 nM; for % Displacement (10^−6 M): 10^−6 M compound
# T1 construct: Guinea pig brains were homogenized in 10 vols; (w/v) of Tris-HCl 50 mM 0.32 M sucrose; from tissue; host or cells: guinea pig brain membranes
# Procedure: Brain membrane preparation and binding assays for the σ1-receptor were performed as described (DeHaven-Hudkins, D. L., L.C. Fleissner, and F. Y. Ford-Rice, 1992, Characterization of the binding of [^3H](+)pentazocine to σ recognition sites in guinea pig brain, Eur. J. Pharmacol. 227, 371-378) with some modifications. Guinea pig brains were homogenized in 10 vols. (w/v) of Tris-HCl 50 mM 0.32 M sucrose, pH 7.4, with a Kinematica Polytron PT 3000 at 15000 r.p.m. for 30 s. The homogenate was centrifuged at 1000 g for 10 min at 4° C. and the supernatants collected and centrifuged again at 48000 g for 15 min at 4° C. The pellet was resuspended in 10 volumes of Tris-HCl buffer (50 mM, pH 7.4), incubated at 37° C. for 30 min, and centrifuged at 48000 g for 20 min at 4° C. Following this, the pellet was re-suspended in fresh Tris-HCl buffer (50 mM, pH 7.4) and stored on ice until use.
# The radioligand used was [^3H]-(+)-pentazocine at 5.0 nM and the final volume was 200 μl. The incubation was initiated with the addition of 100 μA of membrane at a final tissue concentration of approximately 5 mg tissue net weight/mL and the incubation time was 150 m. at 37° C. After incubation, the membranes were collected onto pretreated glass fiber filterplate (MultiScreen-FC, Millipore), with polyethylenimine 0.1%. The filters were washed two times with 200 μA of washing buffer (50 mM Tris Cl, pH=7.4) and then 25 μA of Ecoscint H liquid scintillation cocktail were added. Microplates were allowed to set for several hours and then quantified by liquid scintillation spectrophotometry (1450 Microbeta, Wallac). Nonspecific binding was determined with 1 μM haloperidol.
# T1 sequence (Q60492 whole entry): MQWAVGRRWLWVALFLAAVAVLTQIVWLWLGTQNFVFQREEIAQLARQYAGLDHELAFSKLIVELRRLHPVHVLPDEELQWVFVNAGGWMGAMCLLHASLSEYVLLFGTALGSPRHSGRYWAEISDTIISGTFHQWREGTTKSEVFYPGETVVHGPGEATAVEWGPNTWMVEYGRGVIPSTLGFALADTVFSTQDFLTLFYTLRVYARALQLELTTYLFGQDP
Ki [1],melting point,% Displacement (10^−6 M) [1] [%],Structure (SMILES)
5.47 nM and 6.79 nM,–,–,"CCCCCN1C[C@@H]2[C@@H](C1)OCc1c(-c3ccccc3)nnn12 (relative stereo) [Example 41, (5a,8a-trans)-7-pentyl-3-phenyl-4,5a,6,7,8,8a-hexahydropyrrolo[3,4-b][1,2,3]triazolo[1,5-d][1,4]oxazine]"
–,197 to 198 °C,87,"Clc1ccc(-c2nnn3c2CO[C@@H]2CN(Cc4ccccc4)C[C@H]23)cc1 (relative stereo) [Example 9, (5a,8a-trans)-7-benzyl-3-(4-chlorophenyl)-4,5a,6,7,8,8a-hexahydro pyrrolo[3,4-b][1,2,3]triazolo[1,5-d][1,4]oxazine]"
–,101 to 102 °C,<50,"c1ccc(CN2C[C@@H]3[C@@H](C2)OCc2cnnn23)cc1 (relative stereo) [Example 4, (5a,8a-trans)-7-benzyl-4,5a,6,7,8,8a-hexahydropyrrolo[3,4-b][1,2,3] triazolo[1,5-d][1,4]oxazine]"
563 nM,205 to 206 °C,–,"O=C(CCc1ccccc1)N1C[C@@H]2[C@@H](C1)OCc1c(-c3ccccc3)nnn12 (relative stereo) [Example 28, 3-phenyl-1-((5a,8a-trans)-3-phenyl-5a,6,8,8a-tetrahydropyrrolo[3,4-b][1,2,3]triazolo[1,5-d][1,4]oxazin-7(4H)-yl)propan-1-one]"
31.3 ± 8.7 nM,137 to 138 °C,–,"FC(F)(F)c1ccc(-c2nnn3c2CO[C@@H]2CN(Cc4ccccc4)C[C@H]23)cc1 (relative stereo) [Example 6, (5a,8a-trans)-7-benzyl-3-(4-(trifluoromethyl)phenyl)-4,5a,6,7,8,8a-hexa hydropyrrolo[3,4-b][1,2,3]triazolo[1,5-d][1,4]oxazine]"
375 ± 1.6 nM,106 to 107 °C,–,"CCc1nnn2c1CO[C@@H]1CN(Cc3ccccc3)C[C@H]12 (relative stereo) [Example 8, (5a,8a-trans)-7-benzyl-3-ethyl-4,5a,6,7,8,8a-hexahydropyrrolo[3,4-b][1,2,3]triazolo[1,5-d][1,4]oxazine]"
> 1000 nM,–,–,"COc1ccc(CN2C[C@@H]3[C@@H](C2)OCc2c(C)nnn23)cc1 (relative stereo) [Example 2, (5a,8a-trans)-7-(4-methoxybenzyl)-3-methyl-4,5a,6,7,8,8a-hexahydro pyrrolo[3,4-b][1,2,3]triazolo[1,5-d][1,4]oxazine]"
> 1000 nM,103 to 104 °C,–,"Cc1nnn2c1CO[C@@H]1CN(Cc3ccccc3)C[C@H]12 (relative stereo) [Example 5, (5a,8a-trans)-7-benzyl-3-methyl-4,5a,6,7,8,8a-hexahydropyrrolo[3,4-b][1,2,3]triazolo[1,5-d][1,4]oxazine]"
26.9 ± 4.4 nM,154 to 155 °C,–,"c1ccc(CN2C[C@@H]3[C@@H](C2)OCc2c(-c4ccccc4)nnn23)cc1 (relative stereo) [Example 11, (5a,8a-trans)-7-benzyl-3-phenyl-4,5a,6,7,8,8a-hexahydropyrrolo[3,4-b][1,2,3]triazolo[1,5-d][1,4]oxazine]"
–,275 to 277 °C,–,"O=C(Nc1ccccc1)N1CC2OCc3c(-c4ccccc4)nnn3[C@@H]2C1 (stereo partly drawn) [Example 33, (5a,8a-trans)-N,3-diphenyl-5a,6,8,8a-tetrahydropyrrolo[3,4-b][1,2,3] triazolo[1,5-d][1,4]oxazine-7(4H)-carboxamide]"
334 nM and 341 nM,202 to 204 °C,–,"CCCC(=O)N1C[C@@H]2[C@@H](C1)OCc1c(-c3ccccc3)nnn12 (relative stereo) [Example 29, 1-((5a,8a-trans)-3-phenyl-5a,6,8,8a-tetrahydropyrrolo[3,4-b][1,2,3]triazolo[1,5-d][1,4]oxazin-7(4H)-yl)butan-1-one]"
–,238 to 239 °C,–,"CC(C)(C)OC(=O)N1CC2OCc3c(-c4ccc(C(F)(F)F)cc4)nnn3[C@H]2C1 (stereo partly drawn) [Example 57, (5aS,8aS)-tert-butyl-3-(4-(trifluoromethyl)phenyl)-5a,6,8,8a-tetrahydropyrrolo[3,4-b][1,2,3]triazolo[1,5-c][1,4]oxazine-7(4H)-carboxylate]"
–,220 to 221 °C,–,"O=S(=O)(c1ccc(Br)cc1)N1CC2OCc3cnnn3[C@@H]2C1 (stereo partly drawn) [Example 15, (5a,8a-trans)-7-(4-bromophenylsulfonyl)-4,5a,6,7,8,8a-hexahydro pyrrolo[3,4-b][1,2,3]triazolo[1,5-d][1,4]oxazine]"
298 ± 76.2 nM,–,–,"CCc1nnn2c1CO[C@@H]1CN(Cc3ccc(OC)cc3)C[C@H]12 (relative stereo) [Example 3, (5a,8a-trans)-3-ethyl-7-(4-methoxybenzyl)-4,5a,6,7,8,8a-hexahydro pyrrolo[3,4-b][1,2,3]triazolo[1,5-d][1,4]oxazine]"
–,217 °C (dec.),–,c1nnn2c1COC1CNC[C@H]12 (some centres unmarked)
–,227 to 228 °C,–,"O=C(Nc1ccccc1)N1CC2OCc3cnnn3[C@@H]2C1 (stereo partly drawn) [Example 32, (5a,8a-trans)-N-phenyl-5a,6,8,8a-tetrahydropyrrolo[3,4-b][1,2,3] triazolo[1,5-d][1,4]oxazine-7(4H)-carboxamide]"

Structure (SMILES),Ki [1],melting point,% Displacement (10^−6 M) [1] [%]
"c1ccc(-c2nnn3c2CO[C@@H]2CNC[C@H]23)cc1 (relative stereo) [Example 13, (5a,8a-trans)-3-phenyl-4,5a,6,7,8,8a-hexahydropyrrolo[3,4-b][1,2,3] triazolo[1,5-d][1,4]oxazine]",283 nM and 262 nM,165 to 167 °C,–
